Test results: patent publication US11903386B2, “Strigolactone analogs and their usage in plant control” (King Abdullah University of Science and Technology, priority 2016, dated 2024)
Entries after “also recorded” stand apart in the source; their conditions may differ.

Key:
[1] = Chemical stability of MPs in aqueous solution, monitored by HPLC; format: physicochemical; conditions: aqueous solution pH 6.8, 21° C., monitored at 24 h intervals up to 3 weeks
Protocol: Aqueous solutions of MPs (50 μg ml-1; pH 6.8) were incubated at 21° C. in amber HPLC vials. For sample preparation, 50 μl of an acetone solution (1 mg ml-1) was diluted to the final concentration with methanol (425 μl), water (500 μl) and 25 μl of 1-Indanol (1.0 mg ml-1 solution in acetone) as internal standard. […] The column was operated at 35° C. with a flow rate of 0.25 ml per min. Compounds eluted from the column were detected with a Diode array detector. Relative quantity of remaining (non-degraded) product was determined by comparison to the internal standard.

[2] = test system: S. hermonthica; conditions: in vivo; cited from earlier work
[3] = test system: Arabidopsis seedlings; experiment: Arabidopsis hypocotyl elongation assay; format: in vivo; conditions: 1.0 μM
Protocol: Sterilized Arabidopsis seeds were sown on half strength MS (with 0.5% sucrose+1% agar, 0.5 g L-1 MES, pH 5.7) plates supplemented with MPs or GR24 (at 1.0 μM). Plates were stored at 4° C. in darkness for 3 days. To initiate germination, plates were exposed to continuous white light for 24 h then transferred to continuous monochromatic red light (160 Lux, 22° C.) conditions for another 4 days. For hypocotyl length measurement, at least 30 seedlings were measured using the publically available ImageJ software (http://rsbweb.nih.gov/ij/) after taking digital photographs. Monochromatic red light source was applied as described previously (Wu and Yang, 2010). Light flow rates were measured using a Li250 quantum photometer (Li-Cor, Lincoln, NE, USA).

[4] = test system: P. ramosa seeds; experiment: P. ramosa seed germination bioassay; format: in vivo; conditions: 1.0 μM
Protocol: (§1) Parasitic weed seeds (S. hermonthica and P. ramosa) germination activity was recorded as described previously (Jamil et al., 2012). Six pre-conditioned seed discs were placed in a 90 mm petri-dish containing a filter paper ring wetted with 0.9 ml sterile MilliQ water. […] GR24 solutions with equal concentrations and sterile MilliQ water were included as a positive and negative control, respectively. After application, seeds were incubated at 30° C./25° C. in the dark for two days. Germination (seeds with radical emerging through seed coat) was scored under a binocular microscope, and germination rate (%) was calculated.

[5] = test system: Arabidopsis seedlings; experiment: Arabidopsis lateral root density and primary root length; format: in vivo; conditions: 1.0 μM, 8 days old seedlings
Protocol: Sterilized Arabidopsis seeds were sown on half strength MS (with 0.5% sucrose+1% agar, 0.5 g L^−1 MES, pH 5.7) plates supplemented with GR24 or MPs (at 1.0 μM). Plates were stored at 4° C. in darkness for 3 days and then vertically grown at 22° C. in Percival incubator under long day condition (16 h at 22° C./8 h at 16° C. day/night, 60% relative humidity, 4000-5000 LUX white light) for 8 days. For determining the effect on lateral root density and primary root length, at least 30 seedlings were measured using publically available ImageJ software (http://rsbweb.nih.gov/ij/) after scanning roots.

[6] = test system: S. hermonthica seeds; experiment: Striga hermonthica seed germination bioassay; format: in vivo; conditions: comparison between compounds
Protocol: as §1, with “calculated. Statistical analyses were carried out using statistical software package R (version 3.2.2). Dose-response curves and Half Maximum Effective Concentrations (EC50) were calculated to determine optimum amount of MPs. Synthetic strigolactone analog GR24 was used as reference to estimate efficacy of selected compounds. EC50 and estimated response were calculated using drc package (https://cran.r390 project.org/web/packages/drc/) with a Four Parameter Logistic Curve (Dose Response Curve) (Ritz and Streibig, 2005).” for “calculated.”

[7] = test system: rice seedlings (Shiokari, d3, d10); experiment: Growth and fresh biomass of hydroponically grown rice seedlings; format: in vivo; conditions: 2.5 μM, twice a week for three weeks
Protocol: Rice seeds (WT, d3, d10) were surface-sterilized by washing with 70% ethanol for 1 min and then with 2.5% sodium hypochlorite for 15 min. Seeds were then rinsed thoroughly with sterile MilliQ water and incubated in water for 2 days at 30° C. in the dark. Pre-germinated seeds were transferred to filter papers containing ½ strength MS medium in 90 mm petri dishes and incubated at 30° C. under fluorescent white light (130-180 μM m^−2 s^−1) for one week. Seven day-old seedlings were transferred to 50 ml falcon tubes (one seedling per tube) containing modified half-strength Hoagland nutrient solution and grown in greenhouse. Plants were treated with MPs at 2.5 μM-2.5×10-7 μM, using GR24 as positive control. The compounds were applied six times, twice a week. Number of tillers per plant, plant height and fresh biomass were measured at final harvest.

COC(=O)/C(=C/OC1C=C(C)C(=O)O1)c1ccc(OC)cc1 (centres unmarked) [MP14]
Stability in comparison to GR24 [1]: very similar to that of GR24

CC1=CC(O/C=C2/C(=O)OCc3ccccc32)OC1=O (centres unmarked) [MP5]
Stability in comparison to GR24 [1]: more stable than GR24; also recorded: the most stable compound

CC1=CC(O/C=C(C)\C=C\C2=C(C)CCCC2(C)C)OC1=O (centres unmarked) [Carlactone]
Activity in S. hermonthica seed germination [2]: considerable activity

CC1=CC(O/C=C(/C=O)c2ccc([N+](=O)[O-])cc2)OC1=O (racemic) [MP12, (E)-3-(4-methyl-5-oxo-2,5-dihydrofuran-2-yloxy)-2-(4-nitrophenyl)acrylaldehyde]
Stability in comparison to GR24 [1]: not detectable even after only 24 h
Inhibition of hypocotyl growth [3]: Apart from MP12 and MP15, all MPs showed significant inhibition

COC(=O)/C(=C/OC1C=C(C)C(=O)O1)c1cccc(Cl)c1 (centres unmarked) [MP8]
Stability in comparison to GR24 [1]: very similar to that of GR24
P. ramosa seed germination activity [4]: much higher activity
Reduction of number of lateral roots / lateral root density [5]: slightly more active than GR24

COC(=O)/C(=C/OC1C=C(C)C(=O)O1)c1ccccc1Cl (centres unmarked) [MP9]
Stability in comparison to GR24 [1]: very similar to that of GR24
Relative activity in inducing S. hermonthica seed germination [6]: followed by MP9
Growth, senescence symptoms and biomass of rice seedlings [7]: stunted the growth and caused senescence symptoms
